Test: Comparison of the stability: samples sealed and placed at 40° C. for 7 days, then impurities analysed
Type: physicochemical
Conditions: for Initial Product Amount: before storage (initial); for Product Amount (after 7 days at 40° C.): sealed
Protocol: In the present Example, the stabilities of the oily lubiprostone (prepared according to Example 1) and the final products of Example 1 and Example 2 (crystal samples) were tested, and the results of the tests were compared. Oily lubiprostone, the sample of Example 1, and the sample of Example 2 were separately sealed and placed at 40° C. for 7 days. After completion, the amount of the impurities was analyzed.

Row | SMILES | Initial Product Amount [%] | Product Amount (after 7 days at 40° C.) [%] | stability (conclusion in words) (based on the data of Table 2 (sealed, 40° C., 7 days))
1 | CCCCC(F)(F)[C@@]1(O)CCC2[C@@H](CC(=O)[C@@H]2CCCCCCC(=O)O)O1 (single isomer, unassigned; (-)) [Example 2] | 100.0 | 99.9 | –
2 | CCCCC(F)(F)[C@@]1(O)CCC2[C@@H](CC(=O)[C@@H]2CCCCCCC(=O)O)O1 (single isomer, unassigned; (-)) [Example 1] | 100.0 | 99.9 | –
3 | CCCCC(F)(F)[C@@]1(O)CCC2[C@@H](CC(=O)[C@@H]2CCCCCCC(=O)O)O1 (single isomer, unassigned; (-)) [lubiprostone crystal] | – | – | excellent stability
4 | CCCCC(F)(F)[C@@]1(O)CCC2[C@@H](CC(=O)[C@@H]2CCCCCCC(=O)O)O1 (single isomer, unassigned; (-)) [Oily lubiprostone, reference compound] | 99.9 | 95.8 | –

— patent US8748482B2, “Lubiprostone crystal, the use and the method for the preparation thereof” (Shanghai Techwell Biopharmaceutical Co., Ltd, priority 2008, dated 2014)
